“Also recorded” adds a separate entry of the source.
Tests used:
TCR [1] = test: Functional CD3 kappa assay: TCR expression on CD4+ PBMCs from healthy donors (antibody staining); assay type: cell-based, human; conditions: for TCR-expression: CD4+ cells from three healthy donors, FIG. 2A
Description: (§1) Heparinized full blood was layered on room-temperature LSM (density: 1.077 g/ml, Cambrex, Verviers, Belgium). After centrifugation at 400 g at 20° C. for 30 minutes, the interphase cells were isolated. The cells were washed twice with 50 ml PBS containing 2 mM EDTA and centrifuged at 300 g for 10 minutes at 20° C. The cell-pellet was resuspended in RPMI supplemented with 10% autologous serum, Pen/Strep, Gentamycin, Pyruvate, Hepes-buffer and L-Glutamine (Cambrex).
(§2) CD3 kappa or the control peptide was solubilized in RPMI with 1% human serum albumin (HSA, Calbiochem, Schwalbach, Germany) and 100 μM β-mercaptoethanol (β-ME, Invitrogene) at 10 mg/ml. PBMCs were incubated at 10^6 cells/ml with either peptide in the same medium and stained after on wash step with PBS with various antibodies (BD).
We synthesized the resulting 42 amino acids polypeptide without the signal sequence resulting in the CD3 kappa peptide having the amino acid sequence according to SEQ ID NO:4. All following experiments were performed with freshly isolated PBMCs from healthy donors in the presence of the 42-mer CD3-kappa or of a control peptide (consisting of the same amino acid composition and length but with a random sequence). […] The control peptide had no effect on TCR expression. Concentrations up to 1 mg/ml CD3-kappa induced a maximal response after 24 h resulting in a six fold upregulation of the TCR.

CD4 = test: Functional CD3 kappa assay: CD4 expression on PBMCs from healthy donors; assay type: cell-based, human; conditions: over 6 d, FIG. 2B
Description: as §1, §2
The TCR-expression level was stabilized after treatment with CD3-kappa in a majority of the CD4 cells, while untreated cells quickly converted to a low TCR expression state. Only at day 6 did the CD3-kappa treated cells show a decline in TCR expression.

PBMCs [2] = test: Protein microarrays (human cytokine micro arrays 6.1 and 7.1) of secreted factors in culture supernatant; assay type: cell-based; conditions: for amount of EGF in the supernatant / amount of Eotaxin-2 in the supernatant / amount of GRO in the supernatant / amount of I-309 in the supernatant / amount of IFNγ in the supernatant / amount of IL-1ra in the supernatant / amount of IL-1α in the supernatant / amount of IL-1β in the supernatant / amount of IL-3 in the supernatant / amount of IL-6 in the supernatant / amount of IL-8 in the supernatant / amount of MCP-4 in the supernatant / amount of NAP-2 in the supernatant / amount of PARC in the supernatant / amount of RANTES in the supernatant / amount of SDF-1 in the supernatant / amount of TARC in the supernatant / amount of TGFβ3 in the supernatant / amount of soluble IL-6 Receptor in the supernatant / amount of soluble TNF-Receptor II in the supernatant: FIGS. 3b and 3c
Description: All reagents were from Raybiotech (Hilden, Germany). 2 ml supernatant from cultures with 5×10^6 cells/ml was mixed with blocking buffer (BB) and pipetted to blocked human cytokine micro arrays 6.1 and 7.1. After overnight incubation, the membranes were washed three times with wash buffer I and two times with wash buffer II. Anti-cytokine antibodies were added in 2 ml BB. After incubation and wash as described above, 2 ml streptavidin-HRP was added. Again after incubation and wash as described above, detection solution was added and exposure for 18 h to X-ray films were performed.

PBMCs [3] = test: Functional CD3 kappa assay: cell surface markers and cytokine/chemokine receptors on PBMCs; assay type: cell-based, human; conditions: after six days; for expression of CD25 / expression of CD116: FIGS. 4a/4b
Description: as §1, §2

TCR [4] = test: TCR expression in PBMCs from patients recovering from T-cell toxic chemotherapy (fludarabine); assay type: cell-based, human
Description: as §2
CD3 zeta is synthesized at about 10% of the rate as the other CD3-complex proteins being the limiting component for a correct assembly of the CD3/TCR complex. A maximal upregulation of CD3 zeta can therefore result in a 10-fold upregulation of the TCR. The higher capability of CD3 kappa to upregulate the surface TCR expression might be explained with a reduced need of some of the CD3-complex components.

[5] = peripheral blood mononuclear cells, in vitro

SESVNISTNVNRFHTFPYCEIAEVSCRSKVRIELDLQSPESS (MISC_FEATURE: synthetic) [control peptide, reference compound]
TCR-expression (TCR [1]; after 24 h): no effect

SQVSPFKIPIEELEDRVFVNCNTSIYRASSLSN CRHTSSVEE (SQVSPFKIPIEELEDRVFVNCNTSIYRASSLSNCRHTSSVEE) [CD3 kappa, 42 amino acid long synthesized peptide, splice variant of CD3 delta without the signal peptide]
concentration giving detectable TCR-upregulation (TCR [1]; CD4+ cells from healthy donors, 24 h): ≥ 0.1 mg/mL | TCR-expression (TCR [1]; after 24 h): concentration dependent increase | TCR expression over time (TCR [1]; PBMCs / CD4 cells, over the next 6 days, FIG. 2B): remarkable and sustained increase; also recorded: stabilized | upregulation of the TCR (maximal response) (TCR [1]; PBMCs from healthy donors, up to 1 mg/ml, after 24 h): six | influence of stimulation with PMA and ionomycin on the TCR increase (TCR [1]; cells stimulated with PMA and ionomycin): did not affect this finding | TCR expression at day 6 (TCR [1]; day 6): decline | CD4 expression (CD4): up-regulation | amount of EGF in the supernatant (PBMCs [2]): increased release | amount of Eotaxin-2 in the supernatant (PBMCs [2]): increased release | amount of GRO in the supernatant (PBMCs [2]): decreased release | amount of I-309 in the supernatant (PBMCs [2]): increased release | amount of IFNγ in the supernatant (PBMCs [2]): increased release | amount of IL-1ra in the supernatant (PBMCs [2]): decreased release | amount of IL-1α in the supernatant (PBMCs [2]): increased release | amount of IL-1β in the supernatant (PBMCs [2]): increased release | amount of IL-3 in the supernatant (PBMCs [2]): increased release | amount of IL-6 in the supernatant (PBMCs [2]): increased release | amount of IL-8 in the supernatant (PBMCs [2]): decreased release | amount of MCP-4 in the supernatant (PBMCs [2]): decreased release | amount of NAP-2 in the supernatant (PBMCs [2]): increased release | amount of PARC in the supernatant (PBMCs [2]): increased release | amount of RANTES in the supernatant (PBMCs [2]): decreased release | amount of SDF-1 in the supernatant (PBMCs [2]): decreased release | amount of TARC in the supernatant (PBMCs [2]): decreased release | amount of TGFβ3 in the supernatant (PBMCs [2]): increased release | amount of soluble IL-6 Receptor in the supernatant (PBMCs [2]): decreased release | amount of soluble TNF-Receptor II in the supernatant (PBMCs [2]): decreased release | amount of EGF in the supernatant (PBMCs [2]; listed as CD3-kappa): increased | amount of Eotaxin-2 in the supernatant (PBMCs [2]; listed as CD3-kappa): increased | amount of GRO in the supernatant (PBMCs [2]; listed as CD3-kappa): decreased | amount of I-309 in the supernatant (PBMCs [2]; listed as CD3-kappa): increased | amount of IFNγ in the supernatant (PBMCs [2]; listed as CD3-kappa): increased | amount of IL-1ra in the supernatant (PBMCs [2]; listed as CD3-kappa): decreased | amount of IL-1α in the supernatant (PBMCs [2]; listed as CD3-kappa): increased | amount of IL-1β in the supernatant (PBMCs [2]; listed as CD3-kappa): increased | amount of IL-3 in the supernatant (PBMCs [2]; listed as CD3-kappa): increased | amount of IL-6 in the supernatant (PBMCs [2]; listed as CD3-kappa): increased | amount of IL-8 in the supernatant (PBMCs [2]; listed as CD3-kappa): decreased | amount of MCP-4 in the supernatant (PBMCs [2]; listed as CD3-kappa): decreased | amount of NAP-2 in the supernatant (PBMCs [2]; listed as CD3-kappa): increased | amount of PARC in the supernatant (PBMCs [2]; listed as CD3-kappa): increased | amount of RANTES in the supernatant (PBMCs [2]; listed as CD3-kappa): decreased | amount of SDF-1 in the supernatant (PBMCs [2]; listed as CD3-kappa): decreased | amount of TARC in the supernatant (PBMCs [2]; listed as CD3-kappa): decreased | amount of TGFβ3 in the supernatant (PBMCs [2]; listed as CD3-kappa): increased | amount of soluble IL-6 Receptor in the supernatant (PBMCs [2]; listed as CD3-kappa): decreased | amount of soluble TNF-Receptor II in the supernatant (PBMCs [2]; listed as CD3-kappa): decreased | duration of the changes in secretion (PBMCs [2]; [5]): up to eight | time after addition at which the changes in secretion occur (PBMCs [2]; [5]): about 24 h | expression of CD2 (PBMCs [3]; FIG. 3a): up-regulation | expression of CD58 (PBMCs [3]; FIG. 3a): down regulated | expression of CD127 (PBMCs [3]; FIG. 3a): up-regulation | expression of CD2 (PBMCs [3]; FIG. 3a, listed as CD3-kappa): increase | expression of CD127 (PBMCs [3]; FIG. 3a, listed as CD3-kappa): increase | expression of CD38 (PBMCs [3]; FIG. 4a): not changed | expression of CD44 (PBMCs [3]; FIG. 4a): not changed | expression of CD45RA (PBMCs [3]; FIG. 4a): not changed | expression of CD45RO (PBMCs [3]; FIG. 4a): not changed | expression of CD62L (PBMCs [3]; FIG. 4a): not changed | expression of CD95 (PBMCs [3]; FIG. 4a): not changed | expression of HLA-ABC (PBMCs [3]; FIG. 4a): not changed | expression of HLA-DR, DP, DQ (PBMCs [3]; FIG. 4a): not changed | expression of LAIR (PBMCs [3]; FIG. 4a): not changed | non-T-cell markers (PBMCs [3]; FIG. 4a): not affected | expression of CCR3 (PBMCs [3]; FIG. 4b): up-regulation | expression of CCR9 (PBMCs [3]; FIG. 4b): up-regulation | expression of CXCR1 (PBMCs [3]; FIG. 4b): up-regulation | expression of CXCR3 (PBMCs [3]; FIG. 4b): slight upregulation | expression of CXCR4 (PBMCs [3]; FIG. 4b): slight upregulation | expression of CCR3 (PBMCs [3]; FIG. 4b, listed as CD3-kappa): increase | expression of CCR9 (PBMCs [3]; FIG. 4b, listed as CD3-kappa): increase | expression of CXCR1 (PBMCs [3]; FIG. 4b, listed as CD3-kappa): increase | expression of CD25 (PBMCs [3]): up-regulation | expression of CD116 (PBMCs [3]): up-regulation | expression of CD25 (PBMCs [3]; listed as CD3-kappa): increase | expression of CD116 (PBMCs [3]; listed as CD3-kappa): increase | decreased TCR expression of patients after treatment (TCR [4]; PBMCs / T lymphocytes from patients with decreased TCR expression, compared with healthy individuals): restored to normal levels; also recorded: increased in a statistically significant manner | TCR upregulation (TCR [4]; PBMCs from patients recovering from fludarabine treatment, after 48 h treatment, FIG. 5): 25 fold
